Data as given in patent EP0144845A1, “Indolylacetic acid derivatives and preparations containing same for medical treatments” (GREEN CROSS CORPORATION, priority 1983, dated 1985).

Key:
[1] = test system: carrageenan- induced edema in rats; experiment: Anti-inflammatory action: carrageenan-induced leg edema in rats; type: in vivo, Wister male rats; settings: 0.3 mg/kg by the tail venous route 1 hour after carrageenan, fat emulsions, leg volume vs physiological saline groups 3 hours after carrageenan
Experimental: Wister male rats were divided into groups of 6 rats each. 0.1 mℓ of a 1% solution of carrageenan in physiological saline was injected subcutaneously in the heel of a right hind leg for each rat to develop a leg edema. One hour after the injection of carrageenan, a drug to be tested was injected in a dosage of 0.3 mg/kg by the tail venous route. Thereafter the leg volume was measured with suitable time intervals.
The fat emulsions prepared in Preparation Examples 1 to 4 were tested. As a control drug, physiological saline was used.
The degree of the anti-inflammatory action was indicated as an inhibitory ratio in connection with the leg volume of physiological saline-administered groups 3 hours after the injection of carrageenan.

[2] = Solubility in soybean oil (crystal precipitation on standing); type: physicochemical; settings: 200 mg dissolved in 1 mL soybean oil at 70°C, then standing at 25°C for 2 days and nights
Experimental: In order to examine the solubility of the above-obtained substance in soybean oil, 200 mg of the substance was dissolved in 1 m£ of soybean oil while heating at 70°C and, thereafter, the resulting solution was allowed to stand at 25°C for 2 days and nights.

CCCCOC(=O)COC(=O)Cc1c(C)n(C(=O)c2ccc(Cl)cc2)c2ccc(OC)cc12 [Example 1, butoxycarbonylmethyl indomethacin ester]
Anti-inflammatory Action Edema Inhibition Ratio (%) [1]: 60%

CCCCCCOC(=O)COC(=O)Cc1c(C)n(C(=O)c2ccc(Cl)cc2)c2ccc(OC)cc12 [Example 2, Hexyloxycarbonylmethyl indomethacin ester]
Anti-inflammatory Action Edema Inhibition Ratio (%) [1]: 62%

COc1ccc2c(c1)c(CC(=O)OCOC(=O)C(C)(C)C)c(C)n2C(=O)c1ccc(Cl)cc1 [Example 3, Pivaloyloxymethyl indomethacin ester]
Anti-inflammatory Action Edema Inhibition Ratio (%) [1]: 58%

CCCCOC(=O)COC(=O)Cc1c(C)n(C(=O)c2ccc(F)cc2)c2ccc(OC)cc12 [Example 4, butoxycarbonylmethyl 1-(p-fluorobenzoyl)-5-methoxy-2-methylindole-3-acetate]
solubility in soybean oil: precipitation of crystals [2]: Precipitation of crystals was not observed at all | Anti-inflammatory Action Edema Inhibition Ratio (%) [1]: 68%
